According to publication PMC6123649, “Structural basis for specific inhibition of the highly sensitive ShHTL7 receptor” (EMBO Reports, 2018):

Key:
[1] = target: T1, ShHTL7 (Striga hermonthica, UniProt A0A0M3PNA2); test: Drug affinity response target stability (DARTS) assay; format: binding; details: 100 μM compound; proteinase K 10 μg/ml
T1 sequence (A0A0M3PNA2 1-271): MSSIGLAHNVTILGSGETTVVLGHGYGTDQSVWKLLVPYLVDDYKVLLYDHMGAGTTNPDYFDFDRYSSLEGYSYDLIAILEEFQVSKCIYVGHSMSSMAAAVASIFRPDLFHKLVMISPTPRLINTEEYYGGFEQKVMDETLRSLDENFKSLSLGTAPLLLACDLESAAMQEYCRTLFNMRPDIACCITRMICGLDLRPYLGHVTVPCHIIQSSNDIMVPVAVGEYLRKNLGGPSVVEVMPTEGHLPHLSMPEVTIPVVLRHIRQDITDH
Procedure: ShHTL7 and mutants were diluted to a concentration of 30 μM in 50 mM Tris–HCl pH 7.5, 150 mM NaCl, 0.005% Tween‐20, incubated with GR24 at final concentration of 100 μM for 5 min, and separately with 100 μM Triton X‐100 for 2 h. One sample was kept aside for use as an undigested control. Proteinase K (Hampton Research) was then added to ShHTL7 protein to a final protease concentration of 10 μg/ml. Reactions were incubated at room temperature for 5 min and then SDS–PAGE loading buffer was added to stop the reaction, and the samples were immediately boiled for 3 min. Equal amounts of each sample, corresponding to 10 μg of protein, were run on a 4–20% gradient polyacrylamide gel (Bio‐Rad) and analyzed by Coomassie Blue staining 32.

[2] = system: rice seeds cv. Nipponbare; test: Rice seed germination assay and growth of seedlings; format: in vivo; details: 15 μM of Triton
Procedure: The rice seeds cv. Nipponbare were surface‐sterilized using 50 ml (2.5%) sodium hypochlorite with 0.4% of Tween‐20 for 15 min. After six subsequent washing steps with sterilized water, the rice seeds were kept in water at 30°C for overnight imbibition. About 2 ml of Triton X‐100 concentrations ranging from 1 to 100 μM and sterile MilliQ water (control) was added in 24‐well plates with six replications. One sterilized rice seed was put in each well and allowed to germinate for 48 h at 30°C. The germinated (radicle emergence) and non‐germinated seeds were recorded, and germination percentage was calculated. Then, same seeds were allowed to grow under light in growth cabinet for another 1 week. The length of […] seedlings was measured with roller and averaged.

[3] = system: Orobanche minor; parameters: method as in PMID 23915294; details: concentrations above 0.001%; cited from earlier work
[4] = system: Orobanche cumana; parameters: method as in PMID 23915294; details: concentrations above 0.001%; cited from earlier work
[5] = target: T1, ShHTL7; test: Yoshimulactone Green (YLG) hydrolysis competition assay; format: biochemical
Procedure: In vitro YLG hydrolysis assays were performed using 3 μM of ShHTL7, ShHTL7‐L143Y, AtD14, and OsD14 in a reaction buffer (1× PBS) with 0.1% dimethyl sulfoxide (DMSO) in a 100 μl volume on a 96‐well black plate (Greiner). The fluorescent intensity was measured by SpectraMax i3 (Molecular Devices) using an excitation wavelength of 480 nm and a detection wavelength of 520 nm. […] Protein‐Triton mixes were pre‐incubated for 30 min. 1 μM YLG (Tokyo Chemical Industry Co. Ltd.) was then added, and the assay was incubated for 60 min. The change in fluorescence observed over the course of 1 h incubation of YLG in buffer without protein was subtracted from the data collected in the presence of protein. The resulting relative fluorescence values were analyzed. The inhibitory curves and IC50 values were plotted using GraphPad (Prism 6) four‐parameter logistic curve. The rate of YLG hydrolysis by ShHTL7 was recorded following the above method at 10‐min interval for 2 h.

[6] = target: T2, AtD14 (Arabidopsis thaliana, UniProt Q9SQR3); test: Intrinsic Triton fluorescence binding assay; details: up to 5 μM of AtD14
T2 construct: made in house; host or cells: E. coli BL21 (DE3)
T2 sequence (Q9SQR3 1-267): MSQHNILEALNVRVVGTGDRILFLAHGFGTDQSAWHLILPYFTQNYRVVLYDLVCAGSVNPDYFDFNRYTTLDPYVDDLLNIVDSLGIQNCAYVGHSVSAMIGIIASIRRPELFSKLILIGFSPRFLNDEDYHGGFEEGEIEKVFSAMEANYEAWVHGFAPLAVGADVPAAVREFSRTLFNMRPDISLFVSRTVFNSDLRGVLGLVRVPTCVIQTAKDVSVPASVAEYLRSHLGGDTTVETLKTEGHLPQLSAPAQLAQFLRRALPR
Procedure: Triton X‐100 has an excitation and emission wavelength of 275 and 302 nm, respectively. ShHTL7, ShHTL7‐L143Y, AtD14, and OsD14 were incubated in 50 mM Tris–HCl pH 7.5, 150 mM NaCl, with or without 0.005% Tween‐20, at concentrations ranging from 10 μM to 1 nM (obtained using serial dilutions) with 154 nM of Triton X‐100 for 1–2 h, and fluorescence values were then measured by SpectraMax i3 (Molecular Devices) at excitation and detection wavelengths of 275 and 302 nm, respectively. […] Data were normalized to the background fluorescence from the protein to obtain the change in Triton X‐100 fluorescence intensity. To determine the K d, the changes in Triton X‐100 fluorescence intensity were plotted against the concentration of the protein using the single binding site model implemented in GraphPad (Prism 6).

[7] = target: T1, ShHTL7; test: Microscale thermophoresis (MST); format: binding; details: 2.5 h pre‐incubation; 0.005% Tween‐20; read-out: dissociation constant (Kd), MST
Procedure: ShHTL7 was N‐terminally labeled with RED dye (NT‐647) following the protocol from manufacturer (NanoTemper, Germany). Free dye was removed by passing through the Sephadex G‐25 column. Serial dilutions of unlabeled Triton X‐100, GR24, and PAA ranging from 25 μM to sub‐nanomolar range were mixed with 20 nM of NT‐647‐labeled ShHTL7 in buffer (50 mM Tris–HCl, 150 mM NaCl, 0.005% Tween‐20) and incubated for 2.5 h in the studies for Triton X‐100 and PAA except with GR24, and it was recorded after 10‐min incubation. About 10 μl of sample was loaded into premium monolith NT capillaries, and assays were carried out in a NanoTemper Monolith NT.015T. The red fluorescence was excited by a light‐emitting diode, and its emission was recorded on the focused part of capillaries. Using laser diode, a microscopic temperature gradient was created at the same location and the fluorescence depletion was measured. K d values were determined by plotting the concentrations of unlabeled ligands against the changes in fluorescent thermophoresis signal, and the data were analyzed using the NanoTemper analysis software.

Triton X-100
protection of ShHTL7 from digestion by proteinase K [1]: efficiently protected | effect on rice seed germination [2]: did neither inhibit | effect on rice seedling growth [2]: nor affected seedling growth | effect on seed germination [3]: hindered seed germination | effect on seed germination [4]: hindered seed germination | IC50 ([5]; 3 μM ShHTL7, 1 μM YLG, pre‐incubation with compound, read-out: IC50, YLG hydrolysis by ShHTL7): 470 ± 110 nM | fold lower IC50 than that reported for Soporidine ([5]; compared with non‐specific inhibitor Soporidine): 25 fold | change of Triton fluorescence in presence of protein [6]: did not change | Kd [7]: 440 ± 50 nM
